Test results reported in US20100216779A1 (GLAXOSMITHKLINE LLC, priority 2007, published 2010).

Key:
Assay type in all cases: cell-based
[1] = tested on: COLO205 (colon); assay: Inhibition of cell proliferation, CellTiter-Glo, COLO205; details: Homo sapiens, COLO 205, 72 h
Summary of the method: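 Exponentially growing COLO205 cells in medium with 10% FBS were plated below 2000 cells/well at 37 °C, 5% CO2. Untreated wells served as controls.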

[2] = tested on: NCI-H929 (multiple myeloma); assay: Inhibition of cell proliferation, CellTiter-Glo, NCI-H929; details: Homo sapiens, 72 h
Experimental: C. Inhibition of Cell Proliferation
Cell proliferation was measured by either CellTiter-Glo (measures cellular ATP level as a surrogate for total cell number) or by InCell analyzer (counts number of nuclei as a measure of cell number). For CellTiter-Glo assay, exponentially growing cell lines of different tumor origins, cultured in appropriate media containing 10% fetal bovine serum at 37° C. in a 5% CO2 incubator, were plated at low density (less than 2000 cells/well) in 96-well plates. Twenty four hours post-plating, cells were treated with different concentrations of test compounds ranging from 30 uM to 1.5 nM. Several wells were left untreated as a control. Seventy two hours post-treatment, cell numbers were determined using 50-100 ul per well of CellTiter-Glo (Promega #G7573). Plates were incubated at 37° C. for 30 minutes and the chemiluminescent signal was read on the Victor V or Envison 2100 reader. […]

[3] = target: T1, human IGF-1R (NIH-3T3 cells over expressing human IGF-1R) (Homo sapiens, UniProt P08069); assay: IGF-1R cellular autophosphorylation (DELFIA); details: IGF-1 stimulated
T1 construct: expressed in transfected cells; host or cells: NIH-3T3 (mouse fibroblasts)
T1 sequence (P08069 31-1367): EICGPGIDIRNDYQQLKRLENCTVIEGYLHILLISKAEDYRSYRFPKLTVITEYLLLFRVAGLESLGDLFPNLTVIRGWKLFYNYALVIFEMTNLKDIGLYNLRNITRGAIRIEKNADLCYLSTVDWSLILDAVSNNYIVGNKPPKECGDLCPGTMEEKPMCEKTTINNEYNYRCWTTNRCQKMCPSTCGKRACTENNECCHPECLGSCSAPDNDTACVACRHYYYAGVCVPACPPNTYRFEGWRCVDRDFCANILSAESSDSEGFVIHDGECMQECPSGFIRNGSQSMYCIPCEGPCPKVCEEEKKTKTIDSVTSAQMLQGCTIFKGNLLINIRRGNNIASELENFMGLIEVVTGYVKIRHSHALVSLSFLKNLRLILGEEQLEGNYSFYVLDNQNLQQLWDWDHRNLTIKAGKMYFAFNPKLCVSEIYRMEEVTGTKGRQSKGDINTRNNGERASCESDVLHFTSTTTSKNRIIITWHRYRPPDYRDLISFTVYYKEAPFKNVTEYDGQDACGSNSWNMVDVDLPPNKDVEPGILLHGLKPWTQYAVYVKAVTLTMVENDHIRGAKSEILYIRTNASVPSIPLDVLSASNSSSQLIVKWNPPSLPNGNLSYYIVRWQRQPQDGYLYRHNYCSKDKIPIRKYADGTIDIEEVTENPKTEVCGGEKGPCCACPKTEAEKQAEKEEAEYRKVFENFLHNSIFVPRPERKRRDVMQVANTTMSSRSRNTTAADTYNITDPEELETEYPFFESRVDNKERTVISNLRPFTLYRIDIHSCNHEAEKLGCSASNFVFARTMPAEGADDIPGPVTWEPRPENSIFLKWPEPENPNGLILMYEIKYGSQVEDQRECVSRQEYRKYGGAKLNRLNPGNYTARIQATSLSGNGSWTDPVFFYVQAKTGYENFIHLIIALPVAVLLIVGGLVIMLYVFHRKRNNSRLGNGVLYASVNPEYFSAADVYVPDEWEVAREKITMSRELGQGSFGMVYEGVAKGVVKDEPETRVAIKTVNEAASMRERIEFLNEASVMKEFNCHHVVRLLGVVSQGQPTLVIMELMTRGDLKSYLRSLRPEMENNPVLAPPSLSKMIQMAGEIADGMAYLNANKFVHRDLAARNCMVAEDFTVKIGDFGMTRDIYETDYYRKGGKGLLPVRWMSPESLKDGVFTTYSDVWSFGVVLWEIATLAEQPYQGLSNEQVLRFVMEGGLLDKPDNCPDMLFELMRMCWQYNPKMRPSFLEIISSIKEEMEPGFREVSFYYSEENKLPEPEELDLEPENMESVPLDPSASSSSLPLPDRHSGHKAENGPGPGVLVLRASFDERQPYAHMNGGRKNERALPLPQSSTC
Summary of the method: (§1)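 Readout: DELFIA on lysates, with anti-IGF-1R or anti-IR capture and europium anti-pTyr detection, expressed relative to 100% ligand-stimulated signal. Human IGF-1R- or IR-overexpressing NIH-3T3 cells got compound (1.5 nM–30 uM) for 2 h before 15 min IGF-1 (30 ng/mL) or insulin (3 ug/mL).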

[4] = target: T2, IR (NIH-3T3 cells over expressing human IGF-1R or IR) (Homo sapiens, UniProt P06213); assay: IR cellular autophosphorylation (DELFIA); details: NIH-3T3 cells over expressing IR, insulin stimulated
T2 construct: expressed in transfected cells; host or cells: NIH-3T3 (mouse fibroblasts)
T2 sequence (P06213 28-1382): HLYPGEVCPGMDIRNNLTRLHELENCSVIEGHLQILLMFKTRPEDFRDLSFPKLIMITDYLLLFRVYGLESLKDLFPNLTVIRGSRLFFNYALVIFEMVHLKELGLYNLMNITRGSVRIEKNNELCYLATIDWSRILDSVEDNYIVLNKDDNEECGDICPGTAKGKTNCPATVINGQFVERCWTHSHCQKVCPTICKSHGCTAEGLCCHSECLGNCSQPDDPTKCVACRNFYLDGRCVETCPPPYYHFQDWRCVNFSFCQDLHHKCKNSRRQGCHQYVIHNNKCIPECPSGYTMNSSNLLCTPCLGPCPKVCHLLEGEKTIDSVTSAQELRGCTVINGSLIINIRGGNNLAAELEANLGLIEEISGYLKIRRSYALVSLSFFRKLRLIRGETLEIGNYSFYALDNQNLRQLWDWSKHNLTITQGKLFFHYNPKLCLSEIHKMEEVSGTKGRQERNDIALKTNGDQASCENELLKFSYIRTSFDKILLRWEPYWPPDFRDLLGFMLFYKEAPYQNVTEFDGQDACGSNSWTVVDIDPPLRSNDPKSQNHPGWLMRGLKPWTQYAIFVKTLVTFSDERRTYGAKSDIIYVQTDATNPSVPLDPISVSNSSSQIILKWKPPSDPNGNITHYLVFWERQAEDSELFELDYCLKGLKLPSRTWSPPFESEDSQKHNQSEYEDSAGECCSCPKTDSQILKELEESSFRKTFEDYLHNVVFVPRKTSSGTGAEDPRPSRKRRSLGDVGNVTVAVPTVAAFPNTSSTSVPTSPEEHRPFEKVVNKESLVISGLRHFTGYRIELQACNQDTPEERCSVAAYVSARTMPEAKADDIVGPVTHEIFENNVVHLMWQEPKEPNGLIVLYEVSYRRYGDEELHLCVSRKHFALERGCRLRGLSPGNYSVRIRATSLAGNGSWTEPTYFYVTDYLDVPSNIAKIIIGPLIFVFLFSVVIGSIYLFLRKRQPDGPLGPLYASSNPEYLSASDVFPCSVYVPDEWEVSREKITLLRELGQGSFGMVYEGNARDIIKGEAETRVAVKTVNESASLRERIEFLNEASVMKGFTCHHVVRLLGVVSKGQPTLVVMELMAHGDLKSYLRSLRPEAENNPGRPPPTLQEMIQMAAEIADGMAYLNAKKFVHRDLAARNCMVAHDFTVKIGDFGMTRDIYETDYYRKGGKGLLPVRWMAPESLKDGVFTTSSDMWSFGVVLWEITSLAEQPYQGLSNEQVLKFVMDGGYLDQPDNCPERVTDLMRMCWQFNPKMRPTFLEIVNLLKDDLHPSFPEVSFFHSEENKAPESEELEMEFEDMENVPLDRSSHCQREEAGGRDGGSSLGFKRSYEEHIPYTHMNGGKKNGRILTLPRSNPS
Summary of the method: as §1

Compound | IC50 [1] | IC50 [2] | IC50 [3] | IC50 [4]
COc1cc(CCN2CCN(C)CC2)ccc1Nc1nccc(-c2c(-c3ccc(OC(C)C)c(C(=O)Nc4c(F)cccc4F)c3)nc3ccccn23)n1 [Example 134, N-(2,6-difluorophenyl)-2-isopropoxy-5-{3-[2-({2-methoxy-4-[2-(4-methylpiperazin-1-yl)ethyl]phenyl}amino)pyrimidin-4-yl]imidazo[1,2-a]pyridin-2-yl}benzamide] | 0.25 to 1 µM |  | < 0.1 µM | < 0.1 µM
COc1cc(N2CCN(CCS(C)(=O)=O)CC2)ccc1Nc1nccc(-c2c(-c3ccc(OC)c(C(=O)Nc4c(F)cccc4F)c3)nc3ccccn23)n1 [Example 135, N-(2,6-difluorophenyl)-2-(methyloxy)-5-(3-{2-[(2-(methyloxy)-4-{4-[2-(methylsulfonyl)ethyl]-1-piperazinyl}phenyl)amino]-4-pyrimidinyl}imidazo[1,2-a]pyridin-2-yl)benzamide] | 0.25 to 1 µM |  | < 0.1 µM | < 0.1 µM
COc1cc(CCCN2CCCCC2)ccc1Nc1nccc(-c2c(-c3cccc(C(=O)Nc4c(F)cccc4F)c3)nc3ccccn23)n1 [Example 139, N-(2,6-difluorophenyl)-3-{3-[2-({2-(methyloxy)-4-[3-(1-piperidinyl)propyl]phenyl}amino)-4-pyrimidinyl]imidazo[1,2-a]pyridin-2-yl}benzamide] | 0.25 to 1 µM |  | < 0.1 µM | 0.1 to 0.5 µM
COc1cc(CCCN2CCN(C)CC2)ccc1Nc1nccc(-c2c(-c3cccc(C(=O)Nc4c(F)cccc4F)c3)nc3ccccn23)n1 [Example 141, N-(2,6-difluorophenyl)-3-{3-[2-({2-(methyloxy)-4-[3-(4-methyl-1-piperazinyl)propyl]phenyl}amino)-4-pyrimidinyl]imidazo[1,2-a]pyridin-2-yl}benzamide] | 0.25 to 1 µM |  | 0.1 to 0.5 µM | 0.1 to 0.5 µM
COc1cc(CCCN2CCN(C)CC2)ccc1Nc1nccc(-c2c(-c3ccc(OC)c(C(=O)Nc4c(F)cccc4F)c3)nc3ccccn23)n1 [Example 142, N-(2,6-difluorophenyl)-2-(methyloxy)-5-{3-[2-({2-(methyloxy)-4-[3-(4-methyl-1-piperazinyl)propyl]phenyl}amino)-4-pyrimidinyl]imidazo[1,2-a]pyridin-2-yl}benzamide] | 0.25 to 1 µM |  | < 0.1 µM | < 0.1 µM
COc1cc(N2CCC[C@@H](O)C2)ccc1Nc1nccc(-c2c(-c3cccc(C(=O)Nc4c(F)cccc4F)c3)nc3ccccn23)n1 [Example 170, N-(2,6-difluorophenyl)-3-[3-(2-{[4-[(3R)-3-hydroxy-1-piperidinyl]-2-(methyloxy)phenyl]amino}-4-pyrimidinyl)imidazo[1,2-a]pyridin-2-yl]benzamide] | 0.25 to 1 µM |  | < 0.1 µM | 0.1 to 0.5 µM
COc1cc(C2CCN(CCF)CC2)ccc1Nc1nccc(-c2c(-c3ccc(OC)c(C(=O)Nc4c(F)cccc4F)c3)nc3ccccn23)n1 [Example 179, N-(2,6-difluorophenyl)-5-[3-(2-{[4-[1-(2-fluoroethyl)-4-piperidinyl}-2-(methyloxy)phenyl]-amino}-4-pyrimidinyl)imidazo[1,2-a]pyridin-2-yl]-2-(methyloxy)benzamide] | 0.25 to 1 µM |  | < 0.1 µM | < 0.1 µM
COc1cc(C2CCN(CCS(C)(=O)=O)CC2)ccc1Nc1nccc(-c2c(-c3ccc(OC)c(C(=O)Nc4c(F)cccc4F)c3)nc3ccccn23)n1 [Example 181, N-(2,6-difluorophenyl)-2-(methyloxy)-5-(3-{2-[(2-(methyloxy)-4-{1-[2-(methylsulfonyl)ethyl]-4-piperidinyl}phenyl)amino]-4-pyrimidinyl}imidazo[1,2-a]pyridin-2-yl)benzamide] | 0.25 to 1 µM | < 0.25 µM |  | 
CCOc1ccc(-c2nc3ccccn3c2-c2ccnc(Nc3ccc(C4CCN(CCS(C)(=O)=O)CC4)cc3OC)n2)cc1C(=O)Nc1c(F)cccc1F [Example 182, N-(2,6-difluorophenyl)-2-(ethyloxy)-5-(3-{2-[(2-(methyloxy)-4-{1-[2-(methylsulfonyl)ethyl]-4-piperidinyl}phenyl)amino]-4-pyrimidinyl}imidazo[1,2-a]pyridin-2-yl)benzamide] | < 0.25 µM | < 0.25 µM |  | 
COc1cc(N2CCC(N3CCCCC3)CC2)ccc1Nc1nccc(-c2c(-c3cccc(C(=O)Nc4c(F)cccc4F)c3)nc3cc(C(F)(F)F)ccn23)n1 [Example 191, 3-[3-(2-{[4-(1,4′-bipiperidin-1′-yl)-2-(methyloxy)phenyl]amino}-4-pyrimidinyl)-7-(trifluoromethyl)imidazo[1,2-a]pyridin-2-yl]-N-(2,6-difluorophenyl)benzamide] | > 1 µM | > 1 µM |  | 

Other lines, results leading:

IC50 [1] | IC50 [2] | IC50 [3] | IC50 [4] | Compound
0.25 to 1 µM | < 0.25 µM |  |  | COc1cc(N2CCC(N3CCN(CCS(C)(=O)=O)CC3)CC2)c(C)cc1Nc1nccc(-c2c(-c3cccc(C(=O)Nc4c(F)cccc4F)c3)nc3ccccn23)n1 [Example 115, N-(2,6-difluorophenyl)-3-[3-(2-{[5-methyl-2-(methyloxy)-4-(4-{4-[2-(methylsulfonyl)ethyl]-1-piperazinyl}-1-piperidinyl)phenyl]amino]-4-pyrimidinyl)imidazo[1,2-a]pyridin-2-yl]benzamide]
0.25 to 1 µM |  | < 0.1 µM | < 0.1 µM | COc1cc(N2CCN(CCS(C)(=O)=O)CC2)ccc1Nc1nccc(-c2c(-c3cccc(C(=O)Nc4c(F)cccc4F)c3)nc3ccccn23)n1 [Example 136, N-(2,6-difluorophenyl)-3-(3-{2-[(2-(methyloxy)-4-{4-[2-(methylsulfonyl)ethyl]-1-piperazinyl}phenyl)amino]-4-pyrimidinyl}imidazo[1,2-a]pyridin-2-yl)benzamide]
0.25 to 1 µM |  | < 0.1 µM | < 0.1 µM | COc1cc(CCCN2CCCCC2)ccc1Nc1nccc(-c2c(-c3ccc(OC)c(C(=O)Nc4c(F)cccc4F)c3)nc3ccccn23)n1 [Example 140, N-(2,6-difluorophenyl)-2-(methyloxy)-5-{3-[2-({2-(methyloxy)-4-[3-(1-piperidinyl)propyl]phenyl}amino)-4-pyrimidinyl]imidazo[1,2-a]pyridin-2-yl}benzamide]
0.25 to 1 µM |  | 0.1 to 0.5 µM | < 0.1 µM | CCOc1cc(N2CCN(CCS(C)(=O)=O)CC2)ccc1Nc1nccc(-c2c(-c3cccc(C(=O)Nc4c(F)cccc4F)c3)nc3ccccn23)n1 [Example 145, N-(2,6-difluorophenyl)-3-(3-{2-[(2-(ethyloxy)-4-{4-[2-(methylsulfonyl)ethyl]-1-piperazinyl}phenyl)amino]-4-pyrimidinyl}imidazo[1,2-a]pyridin-2-yl)benzamide]
0.25 to 1 µM |  | 0.1 to 0.5 µM | 0.1 to 0.5 µM | COc1cc(N2CCC[C@H](O)C2)ccc1Nc1nccc(-c2c(-c3cccc(C(=O)Nc4c(F)cccc4F)c3)nc3ccccn23)n1 [Example 169, N-(2,6-difluorophenyl)-3-[3-(2-{[4-[(3S)-3-hydroxy-1-piperidinyl]-2-(methyloxy)phenyl]amino}-4-pyrimidinyl)imidazo[1,2-a]pyridin-2-yl]benzamide]
0.25 to 1 µM |  | < 0.1 µM | < 0.1 µM | CCOc1cc(C2CCN(CCS(C)(=O)=O)CC2)ccc1Nc1nccc(-c2c(-c3cccc(C(=O)Nc4c(F)cccc4F)c3)nc3ccccn23)n1 [Example 183, N-(2,6-difluorophenyl)-3-(3-{2-[(2-(ethyloxy)-4-{1-[2-(methylsulfonyl)ethyl]-4-piperidinyl}phenyl)amino]-4-pyrimidinyl}imidazo[1,2-a]pyridin-2-yl)benzamide]
< 0.25 µM | < 0.25 µM |  |  | CCOc1cc(C2CCN(CCS(C)(=O)=O)CC2)ccc1Nc1nccc(-c2c(-c3ccc(OC)c(C(=O)Nc4c(F)cccc4F)c3)nc3ccccn23)n1 [Example 184, N-(2,6-difluorophenyl)-5-(3-{2-[(2-(ethyloxy)-4-{1-[2-(methylsulfonyl)ethyl]-4-piperidinyl}-phenyl)amino]-4-pyrimidinyl}imidazo[1,2-a]pyridin-2-yl)-2-(methyloxy)benzamide]
< 0.25 µM | < 0.25 µM |  |  | CCOc1cc(C2CCN(CCS(C)(=O)=O)CC2)ccc1Nc1nccc(-c2c(-c3ccc(OC(C)C)c(C(=O)Nc4c(F)cccc4F)c3)nc3ccccn23)n1 [Example 186, N-(2,6-difluorophenyl)-5-(3-{2-[(2-(ethyloxy)-4-{1-[2-(methylsulfonyl)ethyl]-4-piperidinyl}phenyl)amino]-4-pyrimidinyl}imidazo[1,2-a]pyridin-2-yl)-2-[(1-methylethyl)oxy]benzamide]
< 0.25 µM | < 0.25 µM |  |  | CCOc1cc(N2CCC(N3CCN(S(C)(=O)=O)CC3)CC2)c(CC)cc1Nc1nccc(-c2c(-c3ccc(OCC)c(C(=O)Nc4c(F)cccc4F)c3)nc3ccccn23)n1 [Example 205, N-(2,6-difluorophenyl)-5-(3-{2-[(5-ethyl-2-(ethyloxy)-4-{4-[4-(methylsulfonyl)-1-piperazinyl]-1-piperidinyl}phenyl)amino]-4-pyrimidinyl}imidazo[1,2-a]pyridin-2-yl)-2-(ethyloxy)benzamide]
